From US20090253721A1, “Combined treatment with radiation and an epidermal growth factor receptor kinase inhibitor” (priority 2004, published 2009)

How the values were obtained:
[1] = test system: UM-SCC6 and H226 cell lines; test: Cell cycle analysis by flow cytometry (propidium iodide); assay type: cell-based, human
Protocol: Cells were harvested after 72 hours exposure of erlotinib, 24 hours exposure to 6 Gy radiation, or in combination. […] After removal of ethanol by centrifugation, cells were then incubated with phosphate-citric acid buffer [0.2 M Na2HPO4 (pH 7.8), and 4 mM citric acid] at room temperature for 45 min. After centrifugation, cells were then stained with a solution containing 33 μg/ml PI (propidium iodide), 0.13 mg/ml RNase A, 10 mM EDTA, and 0.5% Triton X-100 at 4° C. for 24 hours. Stained nuclei were analyzed for DNA-PI fluorescence using a Becton Dickinson FACScan flow cytometer. Resulting DNA distributions were analyzed by Modfit (Verity Software House, Inc., Topsham, Me.) for the proportion of cells in sub-G0, G1, S, and G2-M phases of the cell cycle.

[2] = test system: HNSCC and NSCLC cell lines; test: Apoptosis by fluorescein labeled caspase inhibitor (caspase activity), cell lines pooled; assay type: cell-based, human; conditions: erlotinib alone 1 μM x 48 hrs
Protocol: (§1) Cells were seeded in 100-mm dishes at a density of 6×10^5 cells per plate and upon treatment, were harvested by trypsinization, centrifuged, and the cell pellet re-suspended to a final concentration of 2×10^6 cells/ml. Caspase activity was analyzed by fluorescence spectroscopy according to the manufacturer's protocol (Chemicon International). Briefly, the 300 μL of cells were incubated with 1× Fluorescein labeled pan-caspase inhibitor FAM-VAD-FMK (Ekert, P. G., et al. (1999) Cell Death Differ. 6(11):1081-6) at 37° C. for 1 hr in a humidified atmosphere of 5% CO2. Cells were then washed twice with wash buffer, finally resuspended in 320 μL PBS. A 100 μL aliquot of the cell suspension was transferred to a black 96-well plate in triplicate. Fluorescence was analyzed on a SpectraMax fluorescence plate reader at 550 nm excitation and 600 nm emission wavelengths.

H226 cells [3] = test: Apoptosis by caspase activity, H226; assay type: cell-based, human; conditions: erlotinib 1 μM combined with radiation 6 Gy
Protocol: as §1

UM-SCC1 cells [4] = test: Apoptosis by caspase activity, UM-SCC1; assay type: cell-based, human; conditions: erlotinib 1 μM combined with radiation 6 Gy
Protocol: as §1

UM-SCC6 cells [5] = test: Apoptosis by caspase activity, UM-SCC6; assay type: cell-based, human; conditions: erlotinib 1 μM combined with radiation 6 Gy, p<0.05
Protocol: as §1

UM-SCC1 cells [6] = test: PARP cleavage by western blot, UM-SCC1; assay type: cell-based, human
Protocol: (§2) Following treatment, cells were lysed with RIPA buffer and sonicated in complete proteinase inhibitor cocktail (Roche) and sodium orthovanadate. Fifteen μg of protein extracts were mixed with SDS sample buffer and electrophoresed onto a 10% SDS-polyacrylamide gel under reducing conditions. The separated proteins were transferred onto nitrocellulose membranes (Amersham Pharmacia Biotech, Piscataway, N.J.). The membrane was incubated for 1 hour in blocking buffer (Tris-buffered saline with 0.1% Tween (TBS-T) and 5% nonfat dry milk). The membranes were then incubated with specific primary antibodies. After washing three times with TBS-T buffer, the membrane was incubated with horseradish peroxidase-linked secondary antibody (Amersham Pharmacia Biotech, Piscataway, N.J.) at 1:5000 dilution for 1 hour at room temperature. The signals were visualized with the ECL+ detection system and autoradiography.

UM-SCC6 cells [7] = test: PARP cleavage by western blot, UM-SCC6; assay type: cell-based, human; conditions: erlotinib/radiation combination, data not shown
Rad51 = test: Radiation-induced Rad51 expression, immunoblot; assay type: cell-based, human; conditions: pretreated with 1 μM erlotinib for 24 hrs; H226 and UM-SCC6; 6 Gy
Protocol: as §2

UM-SCC1 cells [8] = test: Radiation clonogenic survival, UM-SCC1; assay type: cell-based, human; conditions: erlotinib 0.1 μM for 3 days before irradiation, 3, 6, and 9 Gy (p<0.01)
Protocol: (§3) Survival following radiation exposure was defined as the ability of the cells to maintain their clonogenic capacity and to form colonies. Briefly, after exposure to radiation, cells were trypsinized, counted and seeded for colony formation in 35-mm dishes at 50-5000 cells/dish. After incubation intervals of 14-21 days, colonies were stained with crystal violet and manually counted. Colonies consisting of 50 cells or more were scored, and 5 replicate dishes containing 10-150 colonies/dish were counted for each treatment. Experiments were performed in duplicate.

H226 cells [9] = test: Radiation clonogenic survival, H226; assay type: cell-based, human; conditions: erlotinib 0.1 μM for 3 days before irradiation, 6 and 9 Gy (p<0.05)
Protocol: as §3

PCNA = test: Immunohistochemical determination of PCNA in H226 xenografts; assay type: in vivo, athymic mice
[10] = test system: Egr-1, CXCL1, and IL-1β expression; test: Validation of gene expression by quantitative RT-PCR and western blot; assay type: cell-based, human; conditions: UM-SCC6; erlotinib 1.0 μM x 24 hrs pretreatment, 6 Gy
Protocol: as §2
To further validate the microarray findings, we performed quantitative real-time PCR (QPCR) using the SYBR green dye as previously described (Kleer, C. G., et al. (2003) Proc. Natl. Acad. Sci. USA 100(20):11606-11611). Briefly, 1 μg of total RNA isolated from each sample was reverse transcribed into first strand cDNA. Threshold levels were set for each experiment during the exponential phase of the PCR reaction using the SDS v 1.7 software (Applied Biosystems), and the quantity of DNA in each sample was calculated by interpolating its Ct value versus a standard curve of Ct values obtained from serially diluted cDNA from a mixture of all of the samples using Microsoft Excel. All standard curves had R2 values ≧0.99 over three orders of magnitude. The calculated quantity of the target gene for each sample was then divided by the average calculated quantity of the housekeeping genes glyceraldehyde-3 phosphate dehydrogenase (GAPD) and hydroxymethylbilane synthase (HMBS) corresponding to each sample to give a relative expression of the target gene for each sample. All oligonucleotide primers were synthesized by Integrated DNA Technologies. […]

refractory NSCLC = refractory NSCLC patients receiving erlotinib; cited from earlier work
H226 xenografts = test: Tumor growth in athymic nude mice, H226 xenografts
Protocol: (§4) Erlotinib was administered by oral gavage once daily for 3 weeks. Radiation treatment was delivered twice a week for 3 weeks using custom mouse jigs designed to expose only the tumor bed to radiation.
(§5) Combination studies determining apoptosis induction were evaluated using Student's t test with the resultant P value representing a two-sided test of statistical significance.

UM-SCC6 xenografts = test: Tumor growth in athymic nude mice, UM-SCC6 xenografts
Protocol: as §4, §5

[11] = erlotinib alone 0.8 mg daily oral gavage, 3 weeks
[12] = erlotinib combined with radiation (2 Gy twice per week), 55-day observation, p<0.05

For `C#Cc1cccc(Nc2ncnc3cc(OCCOC)c(OCCOC)cc23)c1` [erlotinib, [6,7-bis(2-methoxyethoxy)-4-quinazolin-4-yl]-(3-ethynylphenyl) amine], the S phase fraction ([1]; erlotinib (0.1 μM) combined with radiation (6 Gy)) was “further reduction in the S phase fraction”, the “cell cycle phase distribution, G1” value ([1]; erlotinib alone (0.1 μM)) was “accumulation of cells in G1” and the “number of cells in S phase” value ([1]; erlotinib alone (0.1 μM)) was “reduced the number of cells in S phase”. For the same compound, the “increase in apoptosis as determined by caspase activity” value [2] was 10-25%, the “increase in apoptosis, combined treatment” value (H226 cells [3]) was “additive increase in apoptosis” and the “increase in apoptosis, combined treatment” value (UM-SCC1 cells [4]) was “additive increase in apoptosis”. For the same compound, the “increase in apoptosis induction, combined treatment” value (UM-SCC6 cells [5]) was “supra-additive increase in apoptosis induction”, the PARP cleavage (UM-SCC1 cells [6]; erlotinib 1 μM combined with radiation 6 Gy, UM-SCC1) was “Further increase in PARP cleavage” and the PARP cleavage (UM-SCC1 cells [6]; erlotinib alone 1 μM, 10 and 24 hours following treatment) was “modest PARP cleavage”. The “enhancement in PARP cleavage” value (UM-SCC6 cells [7]) was “even more pronounced”, the “radiation-induced increase in Rad51 expression” value (Rad51) was “attenuated significantly” and the “radiosensitization (reduction in clonogenic survival)” value (UM-SCC1 cells [8]) was “modest but consistent radiosensitization”. The “radiosensitization (reduction in clonogenic survival)” value (H226 cells [9]) was “modest but consistent radiosensitization”, the “number of proliferating cells (PCNA staining)” value (PCNA; combined erlotinib/radiation) was “smallest” and the “number of proliferating cells (PCNA staining)” value (PCNA; erlotinib alone) was “intermediate”. The “radiation-induced enhancement of CXCL1 expression” value [10] was “inhibited”, the “radiation-induced enhancement of Egr-1 expression” value [10] was “inhibited” and the “radiation-induced enhancement of IL-1β expression” value [10] was “inhibited”. For the same compound, the survival (refractory NSCLC) was “survival extension”, the tumor growth (H226 xenografts; [11]) was “modest inhibition of tumor growth” and the “tumor growth inhibition, nature of combination effect” value (H226 xenografts; [12]) was “synergistic”. The tumor growth (UM-SCC6 xenografts; [11]) was “modest inhibition of tumor growth” and the “tumor growth inhibition, nature of combination effect” value (UM-SCC6 xenografts; [12]) was “additive”.
